Laboratory results taken from patent EP4810052A2, “HCRHR2 SELECTIVE POLYPEPTIDES” (Gubra A/S, priority 2023, dated 2026).
Read-outs that look alike come from different tables or passages of the source. Starred links: 1 amine or outer side, 2 acyl side, 3 side chain; linkers in the order of their positions; H or OH if unused. Non-standard residues stand in square brackets, D forms with d. Residues, ends and D or L forms follow the SMILES beside them. Groups on a side chain read outwards from the residue. *: point of attachment. C20 diacid = O=C(O)CCCCCCCCCCCCCCCCCCC(=O)*; γGlu = O=C(O)[C@H](CCC(=O)[*:2])N[*:1]; NMeI = CC[C@H](C)[C@H](NC)C(=O)O; Nle = CCCC[C@H](N)C(=O)O; AEEA = NCCOCCOCC(=O)O; Aib = CC(C)(N)C(=O)O

Tests used:
hCRHR2 = molecular target: T1, hCRHR2 (Homo sapiens, UniProt Q13324); assay: HTRF cAMP assay, determination of hCRHR2 potency (peptide libraries 5 conc., purified peptides 11 conc.); assay type: cell-based
T1 sequence (Q13324 1-411): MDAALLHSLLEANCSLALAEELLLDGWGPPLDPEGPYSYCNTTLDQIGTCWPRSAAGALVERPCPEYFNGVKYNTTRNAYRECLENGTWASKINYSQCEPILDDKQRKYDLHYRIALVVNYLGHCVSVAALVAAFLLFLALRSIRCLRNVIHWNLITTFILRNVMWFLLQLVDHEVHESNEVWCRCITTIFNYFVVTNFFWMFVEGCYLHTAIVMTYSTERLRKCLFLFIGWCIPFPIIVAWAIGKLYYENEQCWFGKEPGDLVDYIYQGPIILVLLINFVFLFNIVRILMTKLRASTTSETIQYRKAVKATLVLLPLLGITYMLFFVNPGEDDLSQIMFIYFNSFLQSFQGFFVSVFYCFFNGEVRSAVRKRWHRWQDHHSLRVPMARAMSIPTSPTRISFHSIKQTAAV
Summary of the method: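 Read-out was HTRF competitive cAMP detection (d2-labelled cAMP, cryptate-labelled antibody) in suspended, freshly thawed CHO-K1 cells stably carrying human CRHR2.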

hCRHR1 = molecular target: T2, hCRHR1 (Homo sapiens, UniProt P34998); assay: HTRF cAMP assay, determination of hCRHR1 potency (peptide libraries 5 conc., purified peptides 11 conc.); assay type: cell-based
T2 sequence (P34998 24-415): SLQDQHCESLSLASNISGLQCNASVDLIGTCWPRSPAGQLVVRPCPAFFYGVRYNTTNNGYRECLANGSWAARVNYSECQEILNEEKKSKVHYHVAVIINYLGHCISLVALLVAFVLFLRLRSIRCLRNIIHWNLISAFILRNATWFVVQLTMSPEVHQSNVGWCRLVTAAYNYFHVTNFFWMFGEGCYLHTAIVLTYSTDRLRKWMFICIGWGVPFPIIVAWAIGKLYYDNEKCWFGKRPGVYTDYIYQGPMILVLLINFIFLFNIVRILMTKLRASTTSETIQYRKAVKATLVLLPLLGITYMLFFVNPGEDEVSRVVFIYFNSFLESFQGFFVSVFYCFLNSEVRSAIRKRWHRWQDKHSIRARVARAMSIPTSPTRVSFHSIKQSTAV
Summary of the method: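 Cellular cAMP was read by time-resolved FRET between d2-labelled cAMP and cryptate anti-cAMP antibody. The cells were freshly thawed suspension CHO-K1 cells stably expressing human CRHR1.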

[1] = Table 3, matched molecular pairs X^38 L vs Nle, peptide library of Example 4, read-out: hCRHR2 pEC50 (converted)
[2] = Table 3, matched molecular pairs X^38 L vs Nle, peptide library of Example 4, read-out: hCRHR1 pEC50 (converted)

| Structure (SMILES) | EC50 (hCRHR2; [1]) [nM] | EC50 (hCRHR1; [2]) [nM] | further results |
| --- | --- | --- | --- |
| CC[C@H](C)[C@H](N)C(=O)N[C@H](C(=O)N[C@@H](CC(C)C)C(=O)N[C@@H](CO)C(=O)N[C@@H](CC(C)C)C(=O)N[C@@H](CC(=O)O)C(=O)N[C@H](C(=O)N1CCC[C@H]1C(=O)N[C@H](C(=O)NCC(=O)N[C@@H](CC(C)C)C(=O)N[C@@H](CC(C)C)C(=O)N[C@@H](CCC(N)=O)C(=O)N[C@H](C(=O)N[C@@H](CC(C)C)C(=O)N[C@@H](CC(C)C)C(=O)N[C@@H](CCC(=O)O)C(=O)N[C@@H](CCC(N)=O)C(=O)N[C@@H](C)C(=O)N[C@@H](CCCNC(=N)N)C(=O)N[C@@H](C)C(=O)N[C@@H](CCCNC(=N)N)C(=O)N[C@@H](CCC(N)=O)C(=O)N[C@@H](CC(C)C)C(=O)N[C@@H](CCCNC(=N)N)C(=O)N[C@@H](CCC(=O)O)C(=O)N[C@@H](CCC(N)=O)C(=O)N[C@@H](C)C(=O)N[C@@H](CCCCNC(=O)COCCOCCNC(=O)COCCOCCNC(=O)CC[C@H](NC(=O)CC[C@H](NC(=O)CCCCCCCCCCCCCCCCCCC(=O)O)C(=O)O)C(=O)O)C(=O)N[C@H](C(=O)N[C@@H](CC(N)=O)C(=O)N[C@@H](C)C(=O)N[C@@H](CCC(=O)O)C(=O)N[C@H](C(=O)N[C@@H](CC(C)C)C(=O)N[C@@H](C)C(=O)N[C@@H](CCC(=O)O)C(=O)N[C@H](C(N)=O)C(C)C)[C@@H](C)CC)[C@@H](C)O)[C@@H](C)CC)[C@@H](C)CC)C(C)C)C(C)C [compound 72] (H-IVLSLDVPIGLLQILLEQARARQLREQAK([AEEA-AEEA-γGlu-γGlu-C20 diacid])TNAEILAEV-NH2) |  |  | EC50 (hCRHR2; library peptides, matched molecular pairs L vs Nle in position X^38, read-out: Potency hCRHR2 pEC50 (converted)): 0.316 nM; EC50 (hCRHR1; library peptides, matched molecular pairs L vs Nle in position X^38, read-out: Potency hCRHR1 pEC50 (converted)): 251 nM |
| CCCC[C@H](NC(=O)[C@@H](NC(=O)[C@H](CCC(=O)O)NC(=O)[C@H](C)NC(=O)[C@H](CC(N)=O)NC(=O)[C@@H](NC(=O)[C@H](CCCCNC(=O)COCCOCCNC(=O)COCCOCCNC(=O)CC[C@H](NC(=O)CC[C@H](NC(=O)CCCCCCCCCCCCCCCCCCC(=O)O)C(=O)O)C(=O)O)NC(=O)[C@H](C)NC(=O)[C@H](CCC(N)=O)NC(=O)[C@H](CCC(=O)O)NC(=O)[C@H](CCCNC(=N)N)NC(=O)[C@H](C)NC(=O)[C@H](C)NC(=O)[C@H](CCC(=O)O)NC(=O)[C@H](C)NC(=O)[C@H](CCCNC(=N)N)NC(=O)[C@H](C)NC(=O)[C@H](CCC(N)=O)NC(=O)[C@H](CCC(=O)O)NC(=O)[C@H](CC(C)C)NC(=O)[C@H](CC(C)C)NC(=O)[C@@H](NC(=O)[C@H](CCC(N)=O)NC(=O)[C@H](CC(C)C)NC(=O)[C@H](CC(C)C)NC(=O)CNC(=O)[C@@H](NC(=O)[C@@H]1CCCN1C(=O)[C@@H](NC(=O)[C@H](CC(=O)O)NC(=O)[C@H](CC(C)C)NC(=O)[C@H](CO)NC(=O)[C@H](CC(C)C)NC(=O)[C@@H](NC(=O)[C@@H](N)[C@@H](C)CC)C(C)C)C(C)C)[C@@H](C)CC)[C@@H](C)CC)[C@@H](C)O)[C@@H](C)CC)C(=O)N[C@@H](C)C(=O)N[C@@H](CCC(=O)O)C(=O)N[C@H](C(N)=O)[C@@H](C)CC [SEQ ID NO: 24] (H-IVLSLDVPIGLLQILLEQARAEAAREQAK([AEEA-AEEA-γGlu-γGlu-C20 diacid])TNAEI[Nle]AEI-NH2) | 0.398 | 1000 |  |
| CCCC[C@H](NC(=O)[C@@H](NC(=O)[C@H](CCC(=O)O)NC(=O)[C@H](C)NC(=O)[C@H](CC(N)=O)NC(=O)[C@@H](NC(=O)[C@H](CCCCNC(=O)COCCOCCNC(=O)COCCOCCNC(=O)CC[C@H](NC(=O)CC[C@H](NC(=O)CCCCCCCCCCCCCCCCCCC(=O)O)C(=O)O)C(=O)O)NC(=O)[C@H](C)NC(=O)[C@H](CCC(N)=O)NC(=O)[C@H](CCC(=O)O)NC(=O)[C@H](CCCNC(=N)N)NC(=O)[C@H](CC(C)C)NC(=O)[C@H](C)NC(=O)[C@H](CCCNC(=N)N)NC(=O)[C@H](C)NC(=O)[C@H](CCCNC(=N)N)NC(=O)[C@H](C)NC(=O)[C@H](CCC(N)=O)NC(=O)[C@H](CCC(=O)O)NC(=O)[C@H](CC(C)C)NC(=O)[C@H](CC(C)C)NC(=O)[C@@H](NC(=O)[C@H](CCC(N)=O)NC(=O)[C@H](CC(C)C)NC(=O)[C@H](CC(C)C)NC(=O)CNC(=O)[C@@H](NC(=O)[C@@H]1CCCN1C(=O)[C@@H](NC(=O)[C@H](CC(=O)O)NC(=O)[C@H](CC(C)C)NC(=O)[C@H](CO)NC(=O)[C@H](CC(C)C)NC(=O)[C@@H](NC(=O)[C@@H](N)[C@@H](C)CC)C(C)C)C(C)C)[C@@H](C)CC)[C@@H](C)CC)[C@@H](C)O)[C@@H](C)CC)C(=O)N[C@@H](C)C(=O)N[C@@H](CCC(=O)O)C(=O)N[C@H](C(N)=O)C(C)C [SEQ ID NO: 40] (H-IVLSLDVPIGLLQILLEQARARALREQAK([AEEA-AEEA-γGlu-γGlu-C20 diacid])TNAEI[Nle]AEV-NH2) | 0.398 | 25.1 |  |
| CCCC[C@H](NC(=O)[C@@H](NC(=O)[C@H](CCC(=O)O)NC(=O)C(C)(C)NC(=O)[C@H](CC(N)=O)NC(=O)[C@@H](NC(=O)[C@H](CCCCNC(=O)COCCOCCNC(=O)COCCOCCNC(=O)CC[C@H](NC(=O)CC[C@H](NC(=O)CCCCCCCCCCCCCCCCCCC(=O)O)C(=O)O)C(=O)O)NC(=O)[C@H](C)NC(=O)[C@H](CCC(N)=O)NC(=O)[C@H](CCC(=O)O)NC(=O)[C@H](CCCNC(=N)N)NC(=O)[C@H](C)NC(=O)[C@H](C)NC(=O)[C@H](CCCNC(=N)N)NC(=O)[C@H](C)NC(=O)[C@H](CCCNC(=N)N)NC(=O)[C@H](C)NC(=O)[C@H](CCC(N)=O)NC(=O)[C@H](CCC(N)=O)NC(=O)[C@H](CC(C)C)NC(=O)[C@H](CC(C)C)NC(=O)[C@@H](NC(=O)[C@H](CCC(N)=O)NC(=O)[C@H](CC(C)C)NC(=O)[C@H](CC(C)C)NC(=O)CNC(=O)[C@@H](NC(=O)[C@@H]1CCCN1C(=O)[C@@H](NC(=O)[C@H](CC(=O)O)NC(=O)[C@H](CC(C)C)NC(=O)[C@H](CO)NC(=O)[C@H](CC(C)C)NC(=O)[C@@H](NC(=O)[C@@H](NC)[C@@H](C)CC)C(C)C)C(C)C)[C@@H](C)CC)[C@@H](C)CC)[C@@H](C)O)[C@@H](C)CC)C(=O)N[C@@H](C)C(=O)N[C@@H](CCC(=O)O)C(=O)N[C@H](C(N)=O)C(C)C [compound 202] (H-[NMeI]VLSLDVPIGLLQILLQQARARAAREQAK([AEEA-AEEA-γGlu-γGlu-C20 diacid])TN[Aib]EI[Nle]AEV-NH2) |  |  | EC50 (hCRHR2; Table 4, library peptides having X^38 = Nle, read-out: hCRHR2 pEC50 (converted)): 0.0251 nM; EC50 (hCRHR1; Table 4, library peptides having X^38 = Nle, read-out: hCRHR1 pEC50 (converted)): 794 nM |
| CC[C@H](C)[C@H](N)C(=O)N[C@H](C(=O)N[C@@H](CC(C)C)C(=O)N[C@@H](CO)C(=O)N[C@@H](CC(C)C)C(=O)N[C@@H](CC(=O)O)C(=O)N[C@H](C(=O)N1CCC[C@H]1C(=O)N[C@H](C(=O)NCC(=O)N[C@@H](CC(C)C)C(=O)N[C@@H](CC(C)C)C(=O)N[C@@H](CCC(N)=O)C(=O)N[C@H](C(=O)N[C@@H](CC(C)C)C(=O)N[C@@H](CC(C)C)C(=O)N[C@@H](CCC(=O)O)C(=O)N[C@@H](CCC(N)=O)C(=O)N[C@@H](C)C(=O)N[C@@H](CCCNC(=N)N)C(=O)N[C@@H](C)C(=O)N[C@@H](CCCNC(=N)N)C(=O)N[C@@H](C)C(=O)N[C@@H](CC(C)C)C(=O)N[C@@H](CCCNC(=N)N)C(=O)N[C@@H](CCC(N)=O)C(=O)N[C@@H](CCC(=O)O)C(=O)N[C@@H](C)C(=O)N[C@@H](CCCCNC(=O)COCCOCCNC(=O)COCCOCCNC(=O)CC[C@H](NC(=O)CC[C@H](NC(=O)CCCCCCCCCCCCCCCCCCC(=O)O)C(=O)O)C(=O)O)C(=O)N[C@H](C(=O)N[C@@H](CC(N)=O)C(=O)N[C@@H](C)C(=O)N[C@@H](CCC(=O)O)C(=O)N[C@H](C(=O)N[C@@H](CC(C)C)C(=O)N[C@@H](C)C(=O)N[C@@H](CCC(=O)O)C(=O)N[C@H](C(N)=O)C(C)C)[C@@H](C)CC)[C@@H](C)O)[C@@H](C)CC)[C@@H](C)CC)C(C)C)C(C)C [SEQ ID NO: 37] (H-IVLSLDVPIGLLQILLEQARARALRQEAK([AEEA-AEEA-γGlu-γGlu-C20 diacid])TNAEILAEV-NH2) | 3.16 | 158000 |  |
